# Values quoted from earlier work in patent US7135436B2, “Solid algicide, preparation and usage in recirculating water” (J.F. Daley International, Ltd., priority 2003, dated 2006).
# Conditions: at 20° C.; 'believed to be'
structure (smiles),measurement,value
"CCNc1nc(Cl)nc(NC(C)(C)C)n1 [terbuthylazine, 2-(tert-butylamino)-4-chloro-6-(ethylamino)-s-triazine]",solubility of terbuthylazine in water,about 5 ppm
